In one data set the target is T1, human MAO-B (Homo sapiens, UniProt P27338).
T1 construct: purchased BD Biosciences (MA, USA)
T1 sequence (P27338 1-520): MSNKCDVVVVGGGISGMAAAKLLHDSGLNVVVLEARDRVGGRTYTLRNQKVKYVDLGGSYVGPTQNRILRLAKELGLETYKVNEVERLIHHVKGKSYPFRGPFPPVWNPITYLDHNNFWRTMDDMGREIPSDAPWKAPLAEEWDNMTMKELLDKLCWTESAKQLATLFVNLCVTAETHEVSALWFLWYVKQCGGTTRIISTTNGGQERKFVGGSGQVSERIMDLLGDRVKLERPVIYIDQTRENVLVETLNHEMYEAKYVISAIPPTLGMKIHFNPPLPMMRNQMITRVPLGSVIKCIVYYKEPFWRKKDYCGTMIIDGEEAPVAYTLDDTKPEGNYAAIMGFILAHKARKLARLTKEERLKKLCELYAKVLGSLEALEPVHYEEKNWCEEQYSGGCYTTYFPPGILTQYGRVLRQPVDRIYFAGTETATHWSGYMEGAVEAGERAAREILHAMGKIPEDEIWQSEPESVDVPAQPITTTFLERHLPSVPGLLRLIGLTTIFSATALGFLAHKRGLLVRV
The experiment in a line: MAO-B activity, colorimetric method, benzylamine substrate. As to conditions: for Specificity of SSAO on MAO-B: ratio of IC50 for MAO-B to IC50 for SSAO; for IC50: recombinant human MAO-B. The format is biochemical. The procedure:
The specificities of the different SSAO inhibitors was tested by determining their abilities to inhibit MAO-A and MAO-B activities in vitro. Recombinant human MAO-A and human MAO-B enzymes were obtained from BD Biosciences (MA, USA). MAO activity was measured using the colorimetric method essentially as described (Holt, A. et al. (1997) Anal. Biochem. 244: 384). A pre-determined amount of inhibitor diluted in 0.2M potassium phosphate buffer, pH 7.6, was added to each well, if required. […] Controls lacked inhibitor. The following agents were then added to a final reaction volume of 200 μL in 0.2M potassium phosphate buffer, pH 7.6: 0.04 mg/ml of MAO-A or 0.07 mg/ml MAO-B enzyme, 15 μL of 10 mM tyramine substrate (for MAO-A), or 15 μL 100 mM benzylamine substrate (for MAO-B), and 50 μL of freshly made chromogenic solution. The chromogenic solution contained 750 μM vanillic acid (Sigma#V-2250), 400 μM 4-aminoantipyrine (Sigma #A-4328) and 12 U/mL horseradish peroxidase (Sigma #P-8250) in order to cause a change of 0.5 OD A490 nm/h. […] The plates were incubated for 60 min at 37° C. The increase in absorbance, reflecting MAO activity, was measured at 490 nm using microplate spectrophotometer (Power Wave 40, Bio-Tek Inst.). Inhibition was presented as percent inhibition compared to control after correcting for background absorbance and IC50 values calculated using GraphPad Prism software. Clorgyline and pargyline (inhibitors of MAO-A and -B, respectively) at 1 μM, were added to some wells as positive controls for MAO inhibition.

The next data set addresses T2, Recombinant human MAO-A (Homo sapiens, UniProt P21397).
T2 construct: purchased BD Biosciences (MA, USA)
T2 sequence (P21397 1-527): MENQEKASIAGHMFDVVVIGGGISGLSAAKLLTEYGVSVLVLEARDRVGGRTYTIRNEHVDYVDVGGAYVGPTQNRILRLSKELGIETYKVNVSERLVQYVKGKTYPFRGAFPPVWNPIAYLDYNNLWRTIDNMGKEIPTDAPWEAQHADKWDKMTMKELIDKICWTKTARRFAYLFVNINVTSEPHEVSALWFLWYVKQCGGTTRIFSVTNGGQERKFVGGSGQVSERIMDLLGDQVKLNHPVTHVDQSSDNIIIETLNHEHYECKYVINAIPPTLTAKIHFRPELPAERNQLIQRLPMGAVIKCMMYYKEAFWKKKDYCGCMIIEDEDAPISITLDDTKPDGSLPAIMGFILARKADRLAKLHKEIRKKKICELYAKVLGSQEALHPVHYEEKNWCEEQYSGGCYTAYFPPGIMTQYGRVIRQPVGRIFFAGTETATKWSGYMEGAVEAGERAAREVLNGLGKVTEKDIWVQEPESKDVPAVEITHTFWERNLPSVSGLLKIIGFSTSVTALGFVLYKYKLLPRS
Briefly: MAO-A activity, colorimetric method, tyramine substrate. The format is biochemical. Conditions: for Specificity of SSAO on MAO-A: ratio of IC50 for MAO-A to IC50 for SSAO; for IC50: recombinant human MAO-A. The procedure: The specificities of the different SSAO inhibitors was tested by determining their abilities to inhibit MAO-A and MAO-B activities in vitro. Recombinant human MAO-A and human MAO-B enzymes were obtained from BD Biosciences (MA, USA). MAO activity was measured using the colorimetric method essentially as described (Holt, A. et al. (1997) Anal. Biochem. 244: 384). A pre-determined amount of inhibitor diluted in 0.2M potassium phosphate buffer, pH 7.6, was added to each well, if required. The amount of inhibitor varied in each assay but was generally at a final concentration of between 1 nM and 1 mM. Controls lacked inhibitor. The following agents were then added to a final reaction volume of 200 μL in 0.2M potassium phosphate buffer, pH 7.6: 0.04 mg/ml of MAO-A or 0.07 mg/ml MAO-B enzyme, 15 μL of 10 mM tyramine substrate (for MAO-A), or 15 μL 100 mM benzylamine substrate (for MAO-B), and 50 μL of freshly made chromogenic solution. The chromogenic solution contained 750 μM vanillic acid (Sigma#V-2250), 400 μM 4-aminoantipyrine (Sigma #A-4328) and 12 U/mL horseradish peroxidase (Sigma #P-8250) in order to cause a change of 0.5 OD A490 nm/h. This was within the linear response range for the assay. The plates were incubated for 60 min at 37° C. The increase in absorbance, reflecting MAO activity, was measured at 490 nm using microplate spectrophotometer (Power Wave 40, Bio-Tek Inst.). Inhibition was presented as percent inhibition compared to control after correcting for background absorbance and IC50 values calculated using GraphPad Prism software. Clorgyline and pargyline (inhibitors of MAO-A and -B, respectively) at 1 μM, were added to some wells as positive controls for MAO inhibition. […] The compounds described in the present invention are therefore expected to have therapeutic utility in the treatment of diseases and conditions in which the activity of SSAO/VAP-1 plays a role, that is, in SSAO/VAP-1 mediated diseases and conditions.

`Cl.NC/C(=C\F)Cc1cccc(F)c1` [Compound I-19-Z, (Z)-3-Fluoro-2-(3-fluorobenzyl)allylamine hydrochloride] had a melting point of 120.5 to 121.5 °C. For the same compound, on human MAO-B, the “Specificity of SSAO on MAO-B” value was 27.6 and the IC50 amounted to 0.69 µM. At Recombinant human MAO-A, the “Specificity of SSAO on MAO-A” value came to 1360 and the IC50 amounted to 34 µM.

Compound `NC/C(=C\Cl)CCc1cc(F)cc(C(F)(F)F)c1.O=C(O)C(F)(F)F` [Compound I-40-Z, (Z)-3-Chloro-2-(3-fluoro-5-trifluoromethylphenylethyl)allylamine trifluoroacetate] registered a melting point of 51 to 52 °C. At human MAO-B, the “Specificity of SSAO on MAO-B” value is reported as 185 and the IC50 is 170 µM. Besides, at Recombinant human MAO-A, the “Specificity of SSAO on MAO-A” value came to 687 and the IC50 turned out to be 632 µM.

Take `COc1ccc(CC/C(=C\Cl)CN)cc1.Cl` [Compound I-44-Z, (E)-3-Chloro-2-(4-methoxyphenylethyl)allylamine hydrochloride]: the melting point is 138 °C (dec.). Moreover, on human MAO-B, the “Specificity of SSAO on MAO-B” value was found to be 22 and the IC50 amounted to 16 µM. Also, at Recombinant human MAO-A, the “Specificity of SSAO on MAO-A” value was found to be 146 and the IC50 stood at 105 µM.

Take `CCOc1ccc(CC/C(=C\Cl)CN)cc1.Cl` [Compound I-45-Z, (E)-3-Chloro-2-(4-ethoxyphenylethyl)allylamine hydrochloride]: the melting point fell in the range of 104 to 106 °C. Also, at human MAO-B, the “Specificity of SSAO on MAO-B” value is 8.6 and the IC50 came to 1.2 µM. Besides, on Recombinant human MAO-A, the “Specificity of SSAO on MAO-A” value amounted to 143 and the IC50 is 20 µM.

In the case of `CCCCOc1ccc(CC/C(=C\Cl)CN)cc1.Cl` [Compound I-47-E, (E)-3-Chloro-2-(4-n-butoxyphenylethyl)allylamine hydrochloride], the melting point lay in the range of 132 to 133 °C. Besides, on human MAO-B, the “Specificity of SSAO on MAO-B” value is given as 2.5 and the half-inhibitory concentration (IC50) is 0.42 µM. At Recombinant human MAO-A, the “Specificity of SSAO on MAO-A” value was 794 and the IC50 was determined as 135 µM.

On to `COc1ccc(CC/C(=C/F)CN)cc1.Cl` [Compound I-102-Z, (Z)-3-Fluoro-2-[2-(4-methoxyphenyl)-ethyl]-allylamine hydrochloride], for which the melting point is 94 to 95 °C. Besides, on human MAO-B, the “Specificity of SSAO on MAO-B” value came out at 19 and the IC50 is 0.56 µM. For the same compound, at Recombinant human MAO-A, the “Specificity of SSAO on MAO-A” value is reported as 21 and the IC50 is 0.62 µM.

The compound `NC/C(=C\F)CCc1cc(F)cc(C(F)(F)F)c1.O=C(O)C(F)(F)F` [Compound I-109-Z, (Z)-3-Fluoro-2-(3-fluoro-5-trifluoromethylphenylethyl)allylamine trifluoroacetate] came in with a melting point of 56 to 57 °C. At human MAO-B, the “Specificity of SSAO on MAO-B” value amounted to 5.9 and the IC50 stood at 1.6 µM. Besides, on Recombinant human MAO-A, the “Specificity of SSAO on MAO-A” value turned out to be 78 and the concentration for half-maximal inhibition (IC50) turned out to be 21 µM.

Consider `Cl.NC/C(F)=C\Cc1ccc(F)cc1` [II-5-E, (E)-2-Fluoro-4-(4-fluorophenyl)-2-butenylamine hydrochloride], for which the melting point was 213 to 214 °C. Also, at human MAO-B, the “Specificity of SSAO on MAO-B” value was over 3333 and the IC50 was over 1000 µM. In addition, at Recombinant human MAO-A, the “Specificity of SSAO on MAO-A” value is on record as over 3333 and the IC50 is over 1000 µM.

Take `Cc1cccc(C/C=C(/F)CN)c1.Cl` [II-6-E, (E)-2-Fluoro-4-(3-methylphenyl)-2-butenylamine hydrochloride]: the melting point fell in the range of 195 to 196 °C. Further, at human MAO-B, the “Specificity of SSAO on MAO-B” value is reported as 7692. On Recombinant human MAO-A, the “Specificity of SSAO on MAO-A” value is 7692.

Compound `Cl.NC/C(F)=C\Cc1cccc(F)c1` [II-7-E, (E)-2-Fluoro-4-(3-fluorophenyl)-2-butenylamine hydrochloride] showed a melting point of 175 to 176 °C. For the same compound, the “Specificity of SSAO on MAO-B” value at human MAO-B is 4545. The “Specificity of SSAO on MAO-A” value at Recombinant human MAO-A amounted to 4545.

Consider `COc1cccc(C/C=C(/F)CN)c1.Cl` [II-8-E, (E)-2-Fluoro-4-(3-methoxyphenyl)-2-butenylamine hydrochloride], for which the melting point was in the range of 175 to 176 °C. At human MAO-B, the “Specificity of SSAO on MAO-B” value was 50000 and the IC50 came to 1100 µM. Besides, at Recombinant human MAO-A, the “Specificity of SSAO on MAO-A” value stood at 50000 and the IC50 amounted to 1100 µM.

In turn, `Cl.NC/C(F)=C\Cc1ccccc1` [II-9-E, (E)-2-Fluoro-4-phenyl-2-butenylamine hydrochloride] came in with a melting point of 120 to 121 °C. Besides, at human MAO-B, the “Specificity of SSAO on MAO-B” value worked out at 12120 and the IC50 was found to be 1200 µM. Besides, at Recombinant human MAO-A, the “Specificity of SSAO on MAO-A” value amounted to 12120 and the IC50 came out at 1200 µM.

Compound `Cl.NC/C(F)=C\Cc1cccc(OC(F)(F)F)c1` [II-10-E, (E)-2-Fluoro-4-(3-trifluoromethoxyphenyl)-2-butenylamine hydrochloride] showed a melting point of 174 to 175 °C. At human MAO-B, the “Specificity of SSAO on MAO-B” value is listed as 53670 and the IC50 amounted to 966 µM. Further, on Recombinant human MAO-A, the “Specificity of SSAO on MAO-A” value is listed as 48330 and the IC50 was found to be 870 µM.

The compound `CSc1cccc(C/C=C(/F)CN)c1.Cl` [II-13-E, (E)-2-Fluoro-4-(3-methylthiophenyl)-2-butenylamine hydrochloride] showed a melting point of 192 to 193 °C. Moreover, the “Specificity of SSAO on MAO-B” value at human MAO-B was found to be 100000. The “Specificity of SSAO on MAO-A” value on Recombinant human MAO-A was found to be 100000.

The compound `CS(=O)(=O)c1cccc(C/C=C(/F)CN)c1.Cl` [II-14-E, (E)-2-Fluoro-4-(3-methanesulfonylphenyl)-2-butenylamine hydrochloride] came in with a melting point of 196 to 197 °C. Besides, the “Specificity of SSAO on MAO-B” value at human MAO-B was 14286. Also, the “Specificity of SSAO on MAO-A” value at Recombinant human MAO-A turned out to be 14290.

What is called IC50 is the concentration at which inhibition is half-maximal. Usually melting point stands for the temperature of the solid-liquid transition.

Values taken from patent US20110269811A1, “INHIBITORS OF SEMICARBAZIDE-SENSITIVE AMINE OXIDASE (SSAO) AND VAP-1 MEDIATED ADHESION USEFUL FOR TREATMENT AND PREVENTION OF DISEASES” (priority 2006, published 2011).
